Reference: the Kinase Knowledgebase extract (Sharma et al. 2016)

Key:
MAPK14 (human) = MAPK14 (human) (UniProt Q16539); assay: Antiproliferation Assay (U937 Cells)
MAPK14 [1] = molecular target: MAPK14 (UniProt Q16539); assay: MAPK14 Inhibition (PHAS-I)
MAPK14 [2] = molecular target: MAPK14 (UniProt Q16539); assay: MAPK14 inhibition (EGFRP)
MAPK14 (Balb/c mice) = assay: LPS Induced TNF-alpha Production (Balb/c Mice); conditions: dose or concentration not given here

MAPK14 (human), sequence (Q16539 whole entry, looked up): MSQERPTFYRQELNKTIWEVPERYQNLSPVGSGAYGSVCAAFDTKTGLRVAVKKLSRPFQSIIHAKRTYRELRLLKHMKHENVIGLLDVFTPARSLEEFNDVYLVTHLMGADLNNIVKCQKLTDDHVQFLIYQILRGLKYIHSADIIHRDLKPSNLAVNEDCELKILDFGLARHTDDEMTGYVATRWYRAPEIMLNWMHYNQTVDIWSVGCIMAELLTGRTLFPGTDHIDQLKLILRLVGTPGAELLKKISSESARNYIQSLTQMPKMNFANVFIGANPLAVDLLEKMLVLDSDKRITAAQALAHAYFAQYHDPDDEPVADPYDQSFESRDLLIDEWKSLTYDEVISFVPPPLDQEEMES
MAPK14, sequence (Q16539 whole entry, looked up): as above

SMILES	IC50 (MAPK14 (human)) [µM]	IC50 (MAPK14 [1]) [nM]	IC50 (MAPK14 [2]) [µM]	inhibition (MAPK14 (Balb/c mice)) [%]
CN(C)CCn1cc(-c2ccc(F)cc2)c(-c2ccncc2)n1.CN(C)CCn1ncc(-c2ccc(F)cc2)c1-c1ccncc1	5	941	10	
Cn1nc(-c2ccncc2)c(-c2ccc(Cl)cc2)c1N	10			
CN1CCC(n2cc(-c3ccc(F)cc3)c(-c3ccncc3)n2)CC1.CN1CCC(n2ncc(-c3ccc(F)cc3)c2-c2ccncc2)CC1		5900	0.75	32
Cc1n[nH]c(-c2ccncc2)c1-c1ccccc1	10			
OCCn1cc(-c2ccc(F)cc2)c(-c2ccncc2)n1.OCCn1ncc(-c2ccc(F)cc2)c1-c1ccncc1	40	695	10	

Continued by falling IC50 (MAPK14 (human)), values first:

IC50 (MAPK14 (human)) [µM]	IC50 (MAPK14 [1]) [nM]	IC50 (MAPK14 [2]) [µM]	SMILES	inhibition (MAPK14 (Balb/c mice)) [%]
22	860	> 10	Fc1ccc(-c2cn(CCN3CCOCC3)nc2-c2ccncc2)cc1.Fc1ccc(-c2cnn(CCN3CCOCC3)c2-c2ccncc2)cc1	
10			NS(=O)(=O)Nc1n[nH]c(-c2ccc(F)cc2)c1-c1ccncc1	
10			CNC(=O)Nc1n[nH]c(-c2ccncc2)c1-c1ccc(F)cc1	
